The values below are quoted from earlier work in patent US20260297016A1, “THERAPEUTIC COMPOUNDS” (REGENTS OF THE UNIVERSITY OF MINNESOTA, priority 2023, published 2026).

The subject of data set [1] is PPAR subtypes. The following applies: cited from earlier work.
Data set [2] has as its system patients with type 2 diabetes. Particulars: orally administered, FIELD and ACCORD; cited from earlier work.
In data set [3] the test system is PPARα. The following applies: cited from earlier work.

Turning to `CC(C)OC(=O)C(C)(C)Oc1ccc(C(=O)c2ccc(Cl)cc2)cc1` [fenofibrate], in data set [1], the “selectivity among PPAR subtypes” value was “lack of selectivity among PPAR subtypes”. Further, in data set [2], the “progression of DR and other microvascular endpoints” value was “significantly reduced the progression of DR and other microvascular endpoints”. In addition, the “affinity for PPARα” value in data set [3] is reported as “low affinity for PPARα”.
